How the values were obtained:
Test in all cases: Deferred antagonism assay, producer S. salivarius M18
Type in all cases: cell-based
S. mutans OMZ175 = settings: Streptococcus mutans, OMZ175, M18, read-out: Size of zone inhibition normalised to control, S. mutans OMZ175
Procedure: (§1) 1-2 producer strain colonies were transferred from a stock plate into 900 μL of suspension solution using a fresh cotton swab. Following this, suspensions were vortexed, and a sample was inoculated onto solid culture media using a fresh cotton swab. The inoculation was a streak that runs diametrically across the agar plate in a 1.5 cm wide strip. The plate was then incubated. Following incubation all visible colonies were removed by swabbing them from the agar surface. The plates were then treated with chloroform by dispensing 2 ml of chloroform onto 4 cm×4 cm piece of cloth and sealing the inverted agar plate on top for 30 minutes. The plates were then air dried for 30 minutes following chloroforming. 1-2 indicator strain colonies were then transferred from a stock plate into complementary suspension solution. The suspensions were then vortexed, and a sample was inoculated onto the same agar surface. These samples were streaked in a perpendicular direction to the initial producer streak.
(§2) Each indicator streak was prepared with fresh a suspension containing cells from a corresponding stock plate containing the indicator strain of interest. Indicator strains suspension samples were transferred using a fresh cotton swab. Results were measured by qualitatively reviewing the subsequent (if any) sizes of the zones of inhibition (ZOI) of indicator strain colony growth. A positive result is when there is a distinctive reduction or complete inhibition of indicator colony growth on the culture medium.
(§3) CABCa agar plates containing various concentrations of saccharide were prepared according to the methods described in Method 1. Producer strains were transferred from stock agar plates into 900 μL THB using a fresh cotton swab. A plastic spread plater was cut to approximately 1.2 cm width and then dipped into ethanol and left to air dry to ensure sterility. A 100 μL sample of the producer strain suspension was then dispensed onto the agar surface in a straight line running diametrically across the agar surface in (approximately) 20 μL spots. The spots were spaced approximately 1.5 cm apart from each other. The plastic spreader was then used to evenly distribute the spots across the agar surface in a 1.5 cm wide strip. This step was taken to ensure an even producer streak was inoculated onto the agar surface and provided an approximate measure of the initial inoculum concentration. Separate plastic spreaders were used for samples containing different producer strains. The samples were left to soak into the agar surface until there was no visible liquid remaining on the agar surface (approximately 20 minutes). Following producer streak preparations, the deferred antagonism assay protocol was followed as per Method 2. Results were recorded by measuring the size of the zone of inhibition (ZOI) in mm.
(§4) A dose response assay was carried out according to method 3 above, except a 1.2 cm streak was used. For the individual saccharide testing the pH of the producer streak was adjusted after the growth of producer to change the acidic conditions.
(§5) A deferred antagonism assay was conducted using K12 or M18 raw ingredient suspended in Todd Hewitt broth (THB). This was spread as a 1.2 cm streak containing approximately 1-2×10^6 cfu down the middle of a CABCa control or CABCa galactose supplemented test plate. After 18 hrs growth at 37° C. with 5% CO2, bacterial growth was removed, and the pH of the agar in the initial streak was measured and adjusted to a pH of 6.5-7.5 using 0.5M sodium carbonate pH11 before sterilizing the agar surface using chloroform vapor. Bacterial test strains were suspended in i-THB before being swabbed across the plates perpendicular to the initial streak. Plates were incubated for a further 18 hrs incubation at 37° C. with 5% CO2 before measuring (mm) any zones of inhibition for each test strain, […]

S. pneumoniae D39 = settings: Streptococcus pneumoniae, D39, M18, read-out: Size of zone inhibition normalised to control, S. pneumoniae D39
Procedure: as §1, §2, §3, §4, §5

[1] = system: S. saprophyticus ATCC 15305; settings: Staphylococcus saprophyticus, ATCC15305, M18, read-out: Size of zone inhibition normalised to control, S. saprophyticus ATCC 15305
Procedure: as §1, §2, §3, §4, §5

S. pyogenes 71-698 = settings: Streptococcus pyogenes, 71698, M18, read-out: Size of zone inhibition normalised to control, S. pyogenes 71-698
Procedure: as §1, §2, §3, §4, §5

S. constellatus T29 = settings: Streptococcus constellatus, T29, M18, read-out: Size of zone inhibition normalised to control, S. constellatus T29
Procedure: as §1, §2, §3, §4, §5

SMILES: O=C[C@H](O)[C@@H](O)[C@@H](O)[C@H](O)CO [Galactose, D-galactose]
- zone of inhibition at 0.5 % strength (S. mutans OMZ175; Galactose 0.5% w/w): 16 mm
- zone of inhibition at 1.25 % strength (S. mutans OMZ175; Galactose 1.25% w/w): 0 mm
- zone of inhibition at 1.7 % strength (S. mutans OMZ175; Galactose 1.7% w/w): 0 mm
- zone of inhibition at 2.5 % strength (S. mutans OMZ175; Galactose 2.5% w/w): 0 mm
- zone of inhibition at 3.3 % strength (S. mutans OMZ175; Galactose 3.3% w/w): 6 mm
- zone of inhibition at 5 % strength (S. mutans OMZ175; Galactose 5% w/w): 0 mm
- zone of inhibition at 0.5 % strength (S. pneumoniae D39; Galactose 0.5% w/w): 8 mm
- zone of inhibition at 1.25 % strength (S. pneumoniae D39; Galactose 1.25% w/w): 5 mm
- zone of inhibition at 1.7 % strength (S. pneumoniae D39; Galactose 1.7% w/w): 0 mm
- zone of inhibition at 2.5 % strength (S. pneumoniae D39; Galactose 2.5% w/w): 6 mm
- zone of inhibition at 3.3 % strength (S. pneumoniae D39; Galactose 3.3% w/w): 2 mm
- zone of inhibition at 5 % strength (S. pneumoniae D39; Galactose 5% w/w): 0 mm
- zone of inhibition at 0.5 % strength ([1]; Galactose 0.5% w/w): 5 mm
- zone of inhibition at 1.25 % strength ([1]; Galactose 1.25% w/w): 0 mm
- zone of inhibition at 1.7 % strength ([1]; Galactose 1.7% w/w): 0 mm
- zone of inhibition at 2.5 % strength ([1]; Galactose 2.5% w/w): 0 mm
- zone of inhibition at 3.3 % strength ([1]; Galactose 3.3% w/w): 0 mm
- zone of inhibition at 5 % strength ([1]; Galactose 5% w/w): 0 mm
- zone of inhibition at 0.5 % strength (S. pyogenes 71-698; Galactose 0.5% w/w): 19.5 mm
- zone of inhibition at 1.25 % strength (S. pyogenes 71-698; Galactose 1.25% w/w): 13.5 mm
- zone of inhibition at 1.7 % strength (S. pyogenes 71-698; Galactose 1.7% w/w): 9.5 mm
- zone of inhibition at 2.5 % strength (S. pyogenes 71-698; Galactose 2.5% w/w): 16.5 mm
- zone of inhibition at 3.3 % strength (S. pyogenes 71-698; Galactose 3.3% w/w): 9.5 mm
- zone of inhibition at 5 % strength (S. pyogenes 71-698; Galactose 5% w/w): 9.5 mm
- zone of inhibition at 0.5 % strength (S. constellatus T29; Galactose 0.5% w/w): 0 mm
- zone of inhibition at 1.25 % strength (S. constellatus T29; Galactose 1.25% w/w): 8 mm
- zone of inhibition at 1.7 % strength (S. constellatus T29; Galactose 1.7% w/w): 0 mm
- zone of inhibition at 2.5 % strength (S. constellatus T29; Galactose 2.5% w/w): 16 mm
- zone of inhibition at 3.3 % strength (S. constellatus T29; Galactose 3.3% w/w): 22 mm
- zone of inhibition at 5 % strength (S. constellatus T29; Galactose 5% w/w): 17 mm
